Assay results from patent publication US20240425807A1, “MANUFACTURING METHOD OF MIXED POWDER, MIXED POWDER, POWDER, AND POWDER MEDIUM” (FUJIFILM Corporation, priority 2022, published 2024).

Legend:
[1] = Liquid property (pH) of solution obtained in solubility evaluation; assay type: physicochemical; details: pH of the solution obtained in the solubility evaluation (tyrosine 0.44 g/L in distilled water)
Protocol: A pH of the solution obtained in the evaluation of solubility was evaluated. Liquid property was evaluated according to the following evaluation standard.

[2] = Overall evaluation based on solubility and liquid property; assay type: physicochemical; details: combined from solubility and liquid property

Liquid property [1]: Neutral (pH of 6.0 to 8.5)
SMILES: N[C@@H](Cc1ccc(O)cc1)C(=O)O [Comparative Example 1, L-tyrosine]
Overall evaluation [2]: E (the solution was still turbid even after 1 hour, and/or the pH was other than neutral)
